# In US10500209B2, “Quinazolinones as bromodomain inhibitors” (Zenith Epigenetics Ltd., priority 2013, dated 2019):
# What was measured:
# [1] = target: T1, Brd4 bromodomain 1 (BRD4(1)) (Homo sapiens, UniProt O60885); test: Inhibition of tetra-acetylated histone H4 binding to BET bromodomains (TR-FRET); parameters: key: Active: Compounds with an IC50 value less than 30 μM were deemed to be active.; Not Active: Compounds with an IC50 value less than 30 μM were deemed to be active; conditions: first bromodomain of Brd4, tetra-acetylated histone H4 peptide
# T1 construct: made in house; host or cells: E. coli BL21(DE3)
# Description: Proteins were cloned and overexpressed with a N-terminal 6×His tag, then purified by nickel affinity followed by size exclusion chromatography. Briefly, E. coli BL21(DE3) cells were transformed with a recombinant expression vector encoding N-terminally Nickel affinity tagged bromodomains from Brd2, Brd3, Brd4. Cell cultures were incubated at 37° C. with shaking to the appropriate density and induced overnight with IPTG. The supernatant of lysed cells was loaded onto Ni-IDA column for purification. Eluted protein is pooled, concentrated and further purified by size exclusion chromatography. Fractions representing monomeric protein were pooled, concentrated, aliquoted, and frozen at −80° C. for use in subsequent experiments.
# Binding of tetra-acetylated histone H4 and BET bromodomains was confirmed by a Time Resolved Fluorescence Resonance Energy Transfer (TR-FRET) method. N-terminally His-tagged bromodomains (200 nM) and biotinylated tetra-acetylated histone H4 peptide (25-50 nM, Millipore) were incubated in the presence of Europium Cryptate-labeled streptavidin (Cisbio Cat. #610SAKLB) and XL665-labeled monoclonal anti-His antibody (Cisbio Cat. #61HISXLB) in a white 96 well microtiter plate (Greiner). For inhibition assays, serially diluted test compound was added to these reactions in a 0.2% final concentration of DMSO. Final buffer concentrations were 30 mM HEPES pH 7.4, 30 mM NaCl, 0.3 mM CHAPS, 20 mM phosphate pH 7.0, 320 mM KF, 0.08% BSA). After a 2-h incubation at room temperature, the fluorescence by FRET was measured at 665 and 620 nm by a SynergyH4 plate reader (Biotek). The binding inhibitory activity was shown by a decrease in 665 nm fluorescence relative to 620 nm. IC50 values were determined from a dose response curve.
# human AML MV-4-11 cells = test: Inhibition of cell proliferation in cancer cell lines (CellTiter Aqueous One); assay type: cell-based; parameters: key: Active: Compounds with an IC50 value less than 30 μM were deemed to be active.; Not Active: Compounds with an IC50 value less than 30 μM were deemed to be active; conditions: 72 h
# Description: MV4-11 cells: 96-well plates were seeded with 5×10^4 cells per well of exponentially growing human AML MV-4-11 (CRL-9591) cells and immediately treated with two-fold dilutions of test compounds, ranging from 30 μM to 0.2 μM. Triplicate wells were used for each concentration, as well as a media only and three DMSO control wells. The cells and compounds were incubated at 37° C., 5% CO2 for 72 h before adding 20 μL of the CellTiter Aqueous One Solution (Promega) to each well and incubating at 37° C., 5% CO2 for an additional 3-4 h. The absorbance was taken at 490 nm in a spectrophotometer and the percentage of proliferation relative to DMSO-treated cells was calculated after correction from the blank well. IC50 were calculated using the GraphPad Prism software.
Compound,FRET activity BRD4(1) [1],melting point,Cell Proliferation activity (IC50 < 30 μM) (human AML MV-4-11 cells)
"COc1cc(OC)c2c(=O)[nH]c(-c3ccccc3NC3CCN(C(C)C)CC3)nc2c1 [Example 10, 2-(2-((1-Isopropylpiperidin-4-yl)amino)phenyl)-5,7-dimethoxyquinazolin-4(3H)-one]",Active,267 to 269 °C,–
"COc1cc(OC)c2c(=O)[nH]c(-c3cccc(NC4CCN(C(C)C)CC4)c3)nc2c1 [Example 27, 2-(3-((1-Isopropylpiperidin-4-yl)amino)phenyl)-5,7-dimethoxyquinazolin-4(3H)-one]",Active,–,–
"COc1ccc(-c2nc3cc(OC)cc(OC)c3c(=O)[nH]2)c(NC2CCN(Cc3ccccc3)CC2)c1 [Example 35, 2-(2-((1-Benzylpiperidin-4-yl)amino)-4-methoxyphenyl)-5,7-dimethoxyquinazolin-4(3H)-one]",Active,–,–
"COc1cnc(-c2nc3cc(OC)cc(OC)c3c(=O)[nH]2)c(N[C@H]2CC[C@@H](NC(=O)C(C)C)CC2)c1 [Example 38, N-(cis-4-((2-(5,7-Dimethoxy-4-oxo-3,4-dihydroquinazolin-2-yl)-5-methoxypyridin-3-yl)amino)cyclohexyl)isobutyramide]",–,285 °C (dec.),–
"COc1cc(OC)c2c(=O)[nH]c(-c3ncccc3NCC3CCN(C)C3)nc2c1 (stereo not drawn) [Example 41, 5,7-Dimethoxy-2-(3-(((1-methylpyrrolidin-3-yl)methyl)amino)pyridin-2-yl)quinazolin-4(3H)-one]",Active,157 to 159 °C,–
"COc1cc(OC)c2c(=O)[nH]c(-c3ncccc3NCCCNC(C)C)nc2c1 [Example 43, 2-(3-((3-(Isopropylamino)propyl)amino)pyridin-2-yl)-5,7-dimethoxyquinazolin-4(3H)-one]",Active,121 to 122 °C,–
"COc1cc(OC)c2c(=O)[nH]c(-c3ncccc3NC3CCN(C)CC3)nc2c1 [Example 44, 5,7-Dimethoxy-2-(3-((1-methylpiperidin-4-yl)amino)pyridine-2-yl)quinazolin-4(3H)-one]",Active,186 to 188 °C,–
"COc1cc(OC)c2c(=O)[nH]c(-c3ncccc3NCCN3CCOCC3)nc2c1 [Example 49, 5,7-Dimethoxy-2-(3-((2-morpholinoethyl)amino)pyridine-2-yl)quinazolin-4(3H)-one]",Active,168 to 170 °C,–
"COc1cc(OC)c2c(=O)[nH]c(-c3ncccc3N[C@H]3CC[C@@H](C(=O)N(C)C)CC3)nc2c1 [Example 53, cis-4-((2-(5,7-Dimethoxy-4-oxo-3,4-dihydroquinazolin-2-yl)pyridin-3-yl)amino)-N,N-dimethylcyclohexane-1-carboxamide]",Active,276 to 278 °C,–
"COc1cc(OC)c2c(=O)[nH]c(-c3ncccc3NC3CCN(C(N)=O)CC3)nc2c1 [Example 54, 4-((2-(5,7-Dimethoxy-4-oxo-3,4-dihydroquinazolin-2-yl)pyridin-3-yl)amino)piperidine-1-carboxamide]",Active,265 to 266 °C,–
"COc1cncc2nc(-c3ncccc3NC3CCN(C(C)C)CC3)[nH]c(=O)c12 [Example 58, 2-(3-((1-Isopropylpiperidin-4-yl)amino)pyridin-2-yl)-5-methoxypyrido[3,4-d]pyrimidin-4(3H)-one]",Active,237 to 238 °C,–
"COc1cc(N)cc2nc(-c3ncccc3NC3CCN(C(C)C)CC3)[nH]c(=O)c12 [Example 65, 7-amino-2-(3-((1-Isopropylpiperidin-4-yl)amino)pyridin-2-yl)-5-methoxyquinazolin-4(3H)-one]",Active,–,–
"COc1cc(OC)c2c(=O)[nH]c(-c3ncccc3NC3CCN(C(C)(C)CO)CC3)nc2c1 [Example 68, 2-(3-((1-(1-Hydroxy-2-methylpropan-2-yl)piperidin-4-yl)amino)pyridin-2-yl)-5,7-dimethoxyquinazolin-4(3H)-one]",Active,223 to 225 °C,–

# Results, then the compound that gave them:
FRET activity BRD4(1) [1],melting point,Cell Proliferation activity (IC50 < 30 μM) (human AML MV-4-11 cells),Compound
Active,–,–,"COc1ccc(-c2nc3cc(OC)cc(OC)c3c(=O)[nH]2)c(C(=O)N2CCN(C)CC2)c1 [Example 2, 5,7-Dimethoxy-2-(4-methoxy-2-(4-methylpiperazine-1-carbonyl)phenyl) quinazolin-4(3H)-one]"
Active,214 to 215 °C,–,"COc1ccc(-c2nc3cc(OC)cc(OC)c3c(=O)[nH]2)c(NC2CCN(C)C2)c1 (stereo not drawn) [Example 4, 5,7-Dimethoxy-2-(4-methoxy-2-((1-methylpyrrolidin-3-yl)amino)phenyl)quinazolin-4(3H)-one]"
–,217 to 218 °C,–,"COc1ccc(-c2nc3cc(OC)cc(OC)c3c(=O)[nH]2)c(N(C)C2CCN(C)CC2)c1 [Example 5, 5,7-Dimethoxy-2-(4-methoxy-2-(methyl(1-methylpiperidin-4-yl)amino)phenyl) quinazolin-4(3H)-one]"
Active,264 to 265 °C,–,"COc1ccc(-c2nc3cc(OC)cc(OC)c3c(=O)[nH]2)c(NCC2CCN(C)CC2)c1 [Example 6, 5,7-Dimethoxy-2-(4-methoxy-2-(((1-methylpiperidin-4-yl)methyl)amino)phenyl) quinazolin-4(3H)-one]"
Active,286 to 287 °C,Not Active,"COc1ccc(-c2nc3cc(OC)cc(OC)c3c(=O)[nH]2)c(NC2CCOCC2)c1 [Example 9, 5,7-dimethoxy-2-(4-Methoxy-2-((tetrahydro-2H-pyran-4-yl)amino)-phenyl)quinazolin-4(3H)-one]"
Active,226 to 228 °C,–,"COc1ccc(-c2nc3cc(OC)cc(OC)c3c(=O)[nH]2)c(NCCN2CCCC2)c1 [Example 11, 5,7-Dimethoxy-2-(4-methoxy-2-((2-(pyrrolidin-1-yl)ethyl)amino)phenyl)quinazolin-4(3H)-one]"
Active,231 to 232 °C,–,"COc1ccc(-c2nc3cc(OC)cc(OC)c3c(=O)[nH]2)c(NCCN2CCCCC2)c1 [Example 12, 5,7-Dimethoxy-2-(4-methoxy-2-((2-(piperidin-1-yl)ethyl)amino)-phenyl)quinazolin-4(3H)-one]"
Active,234 to 235 °C,–,"COc1ccc(-c2nc3cc(OC)cc(OC)c3c(=O)[nH]2)c(NCCCN2CCOCC2)c1 [Example 13, 5,7-Dimethoxy-2-(4-methoxy-2-((3-morpholinopropyl)amino)-phenyl)quinazolin-4(3H)-one]"
Active,210 to 212 °C,–,"COc1ccc(-c2nc3cc(OC)cc(OC)c3c(=O)[nH]2)c(NCCN2CCNCC2)c1 [Example 24, 5,7-Dimethoxy-2-(4-methoxy-2-((2-(piperazin-1-yl)ethyl)amino)phenyl)quinazolin-4(3H)-one]"
Active,–,–,"COc1ccc(-c2nc3cc(OC)cc(OC)c3c(=O)[nH]2)c(NC2CCC(C)(C)CC2)c1 [Example 29, 2-(2-((4,4-Dimethylcyclohexyl)amino)-4-methoxyphenyl)-5,7-dimethoxyquinazolin-4(3H)-one]"
–,265 °C (dec.),–,"COc1cc(OC)c2c(=O)[nH]c(-c3ccc(Cl)cc3NC3CCN(C(C)C)CC3)nc2c1 [Example 33, 2-(4-Chloro-2-((1-isopropylpiperidin-4-yl)amino)phenyl)-5,7-dimethoxyquinazolin-4(3H)-one]"
Active,281 to 283 °C,–,"COc1cc(OC)c2c(=O)[nH]c(-c3ccc(Cl)cc3NC3CCN(C(=O)C(C)C)CC3)nc2c1 [Example 34, 2-(4-Chloro-2-((1-isobutyrylpiperidin-4-yl)amino)phenyl)-5,7-dimethoxyquinazolin-4(3H)-one]"
Active,191 to 193 °C,–,"COc1cnc(-c2nc3cc(OC)cc(OC)c3c(=O)[nH]2)c(NC2CCN(C)CC2)c1 [Example 40, 5,7-Dimethoxy-2-(5-methoxy-3-((1-methylpiperidin-4-yl)amino)pyridin-2-yl)quinazolin-4(3H)-one]"
